Data taken from patent US20010005714A1, “AMPHIPATHIC MOLECULES AS CHOLESTEROL AND OTHER LIPID UPTAKE INHIBITORS” (priority 1996, published 2001).
Values belong to the molecule of their own block, whether it stands above or below them.

Tests used:
BBMVs = assay: Inhibition of cholesteryl oleate uptake by BBMVs by peptides of varying lengths (Example 8); assay type: biochemical; conditions: for Inhibition of Cholesteryloleate Uptake In. %: donor 0.05 mg total lipid/ml, acceptor 5 mg protein/ml, 23° C.
Experimental: going from one peptide to the other (top→bottom) 3 amino acids were removed from the N-terminus. The inhibitory effect of the four peptides listed above were compared at 120 μg peptide/ml. The lipid uptake by BBMVs was measured in the presence of 120 μg peptide/ml each as described below.
Donor and acceptor particles dispersed in Tris/NaCl buffer were centrifuged in a Beckman airfuge at 115000 g is for 2 min at 4° C. The dispersion of the acceptor yielded a pellet which was resuspended in Tris/NaCl buffer. Varying amounts of inhibitor dissolved in the same buffer were added to the acceptor dispersion and at time zero the dispersiorn of acceptor with or without inhibitor was mixed with the top 80% of the supernatant obtained by centrifugation of the donor dispersion. The final concentration of the donor was 0.05 mg total lipid/ml and that of the acceptor was 5 mg protein/ml. The resulting dispersion was incubated at 23° C. and after timed intervals the sterol uptake was stopped by dilution of the incubation medium with 2 volumes of Tris/NaCl buffer. BBMV were separated from the donor by centrifugation in the Beckman airfuge at 115000 g for 2 min at 4° C. The radioactivities in the supernatant containing the donor and in the pellet containing the BBMV (acceptor) were determined in a Beckman LS 7500 scintillation counter.

[1] = test system: brush border membrane vesicles (BBMV); assay: IC50 of cholesteryl oleate uptake at the brush border membrane (Example 6); assay type: biochemical, rabbit; conditions: donor 0.1 mg total lipid/ml, acceptor 2 mg protein/ml; 20 min at 25° C.
Experimental: An appropriate amount of inhibitor dissolved in 84.5 μl buffer (0.05 M Tris pH 7.4, 0.15 M NaCl) is mixed in an Eppendorf tube at time zero with 5 μl of a dispersion of donor and 10.5 μl of a dispersion of acceptor (i.e. brush border membrane vesicles (BBMV)) in the same buffer. The final concentration of the donor vesicles was 0.1 mg total lipid/ml, that of the acceptor was 2 mg protein/ml. The resulting mixture was incubated for 20 min at 25° C., and the reaction was stopped by adding 60 μl of the incubation medium to 120 μl ice-cold bufferin an airfuge tube. The diluted dispersion was immediately centrifuiaed in the airfuge at […] for 2 min. at 4° C. to separate donor vesicles from BBMV. Two 60 μl aliquots of the donor (=supernatant) were counted in a Beckman LS-7500 liquid scintillating counter to determine the radioactivity remaining in tbe donor.
Small unilamellar egg phosphatidycholine (PC) vesicles containing 1 mol % of cholesterol oleate and a trace amount of ^3H-cholesterol oleyl ether were made by dissolving the appropriate amounts of the lipids in CHCl3/CH3OH, (2:1, by vol.), taking the solution to dryness on a rotary evaporator and drying the residue in vacuo. The dried lipid film was dispersed in the appropriate volume of buffer by hand-shaking. The lipid dispersion was subjected to tip sonication as described in Brunner et al, J. Biol. Chem. 253 7538-7546 (1978). The resulting donor dispersion in buffer was centrifuged in the airfuge at 100000 g for 2 min at […]. Only the top 80% of the donor dispersion after centrifugation was used in the lipid uptake experiment.
BBMV were prepared from frozen rabbit small intestine according to Hauser et al (Biochim. Biophys. Acta 602 567-577 (1980)). Prior to use in the uptake experiment determining IC50 values the BBMV were washed to remove any free protein liberated from the BBM. To this end the BBMV dispersion was diluted with buffer 1:1 in an airfuge tube, and the diluted dispersion was centrifuged in the airfuga at 100000 g for 2 min at […]. The supernatant was is carefully decanted, the pellet was resuspended in buffer to the original volume of the BBMV dispersion, and the dispersion was homogenized. […]

Molecule: Ac-Lys-Alα-Phe-Tyr-Asp-Lys-Val-Alα-Glu-Lys-Leu-Lys-Glu-Alα α-Phe-NH2 (Ac-KAFYDKVAEKLKEAF-NH2) [Ac-15A-NH2]
- inhibitory effect on cholesteryl oleate uptake (in words, footnote) (BBMVs; 120 μg peptide/ml): Useful inhibitory effect is seen with Peptides Nos. 1 and 2.
- Inhibition of Cholesteryloleate Uptake In. % (BBMVs; 120 μg peptide/ml): 85%
- cholesteryl oleate uptake inhibition activity relative to Ac-18A-NH2 (BBMVs; brush border membrane vesicle model): 85%

Molecule: CH3CO—VAEKLKEAF—NH2 (Ac-VAEKLKEAF-NH2) [Ac-9A-NH2]
- Inhibition of Cholesteryloleate Uptake In. % (BBMVs; 120 μg peptide/ml): 0%

- IC50 [1]: 0.5 ± 0.2 µM
- IC50 (μg/mL) of cholesteryl oleate uptake at the brush border membrane [1]: 4.2 ± 0.2 µg/mL
Molecule: Apo C-32: natural (human) apoprotein C-III2

- IC50 [1]: 2.9 ± 0.2 µM
- IC50 (μg/mL) of cholesteryl oleate uptake at the brush border membrane [1]: 95 ± 7 µg/mL
Molecule: Apo E: natural (human) apoprotein E

- IC50 [1]: 0.6 ± 0.1 µM
- IC50 (μg/mL) of cholesteryl oleate uptake at the brush border membrane [1]: 4.8 ± 0.8 µg/mL
Molecule: Apo C-31: natural (human) apoprotein C-III1

- IC50 [1]: 1.8 ± 0.4 µM
- IC50 (μg/mL) of cholesteryl oleate uptake at the brush border membrane [1]: 12 ± 2 µg/mL
Molecule: Apo C-1: natural (human) apoprotein C-I (TPDVSSALDKLKEFGNTLEDKARELISRIKQSELSAKMREWFSETFQKVKEKLKIDS; Apolipoprotein C-I; UniProt P02654 27-83, looked up)

Molecule: CH3CO—YDKVAEKLKEAF—NH2 (Ac-YDKVAEKLKEAF-NH2) [Ac-12A-NH2]
- Inhibition of Cholesteryloleate Uptake In. % (BBMVs; 120 μg peptide/ml): 20%

- IC50 [1]: 2.1 ± 0.1 µM
- IC50 (μg/mL) of cholesteryl oleate uptake at the brush border membrane [1]: 19 ± 1 µg/mL
B1: Apo C-2: natural (human) apoprotein C-II (protein, UniProt P02655 29-101, looked up)
Apolipoprotein C-II: DEMPSPTFLTQVKESLSSYWESAKTAAQNLYEKTYLPAVDEKLRDLYSKSTAAMSTYTGIFTDQVLSVLKGEE
modifications: Apolipoprotein C-II

- IC50 [1]: 0.7 ± 0.1 µM
- IC50 (μg/mL) of cholesteryl oleate uptake at the brush border membrane [1]: 32 ± 4 µg/mL
B2: Apo A-4: natural (human) apoprotein A-IV (protein, UniProt P06727 21-396, looked up)
Apolipoprotein A-IV: EVSADQVATVMWDYFSQLSNNAKEAVEHLQKSELTQQLNALFQDKLGEVNTYAGDLQKKLVPFATELHERLAKDSEKLKEEIGKELEELRARLLPHANEVSQKIGDNLRELQQRLEPYADQLRTQVSTQAEQLRRQLTPYAQRMERVLRENADSLQASLRPHADELKAKIDQNVEELKGRLTPYADEFKVKIDQTVEELRRSLAPYAQDTQEKLNHQLEGLTFQMKKNAEELKARISASAEELRQRLAPLAEDVRGNLRGNTEGLQKSLAELGGHLDQQVEEFRRRVEPYGENFNKALVQQMEQLRQKLGPHAGDVEGHLSFLEKDLRDKVNSFFSTFKEKESQDKTLSLPELEQQQEQQQEQQQEQVQMLAPLES
